Data reported in patent US20260083742A1, “HOMOLOGOUS RECOMBINATION REPAIR DEFICIENCY (HRD) AS A PREDICTIVE BIOMARKER FOR TREATING CANCER WITH WEE1 INHIBITORS” (Zeno Management, Inc., priority 2023, published 2026).
Like-named read-outs stand apart in the source and are kept apart here. Each block holds one compound with its values, some of them ahead of it.

Key:
[1] = test system: MDA-MB-436 Nir^R (BRCA reversion) TNBC cell line; assay: In vitro activity (IC50) in niraparib-resistant MDA-MB-436; assay type: cell-based
Method: (§1) Cells with BRCA reversion mutations may be considered HRD+due to genome instability (such as TAI, LST, LOH). BRCA reversion mutation is an established mechanism of resistance to both platinum-based chemotherapeutic drugs and PARP inhibitors. In vivo exploration of WEE1 inhibitors (azenosertib, adavosertib) and PARP inhibitors (niraparib, olaparib) was evaluated.
(§2) MDA-MB-436 PARP inhibitor-resistant lines were generated by long-term in vitro treatment with a PARP inhibitor that is olaparib (Ola^R) or niraparib (Nir^R).

[2] = test system: 22RV1 (prostate cancer cell line) subcutaneous xenografts; assay: 22RV1 subcutaneous xenograft tumor growth inhibition; assay type: in vivo, CB17 SCID mice
Method: The prostate cancer cell line 22RV1 harbors a BRCA2 pathogenic mutation (HRD+). Briefly, 72 tumor-bearing mice were randomized and assigned into nine groups using a randomized block design based on their tumor volumes with eight mice per group. Each mouse was inoculated subcutaneously at the right flank with 22RV1 tumor cells in 0.2 mL mixture of Matrigel (5×10^6 cells/mouse). Treatments were started when the tumor size reached 199.94 mm^3 for tumor efficacy studies (Day 14 post inoculation). [table] Tumor size was measured twice weekly in two dimensions using caliper and expressed in mm3 using the formula: where a and b were long and short diameters of the tumor. The tumor size was used for calculations of T/C %. The T/C(%) was calculated according to the following formula: Two-way ANOVA followed by Bonferroni post-test was performed to compare tumor volumes among vehicle and other groups.

[3] = test system: MDA-MB-436 Ola^R (BRCA reversion) TNBC cell line; assay: In vitro activity (IC50) in olaparib-resistant MDA-MB-436; assay type: cell-based
Method: as §1, §2

[4] = test system: HCC1937 PARP inhibitor-resistant TNBC xenograft; assay: HCC1937 TNBC xenograft tumor growth inhibition; assay type: in vivo, mice; conditions: olaparib 100 mg/kg QD
Method: Anti-tumor activity of azenosertib monotherapy or in combination with olaparib was evaluated in the HCC1937 model in vivo in mice (FIG. 9), and Table 11 summarizes the groups and treatments. […] Treatment with monotherapy olaparib at 100 mg/kg QD confirmed HCC1937 resistance to the PARP inhibitor.

[5] = test system: parental MDA-MB-436 TNBC cell line; assay: In vitro activity (IC50) in parental MDA-MB-436; assay type: cell-based
Method: as §1, §2

[6] = test system: SUM149PT TNBC xenograft (BRCA1 splice isoform Δ11q); assay: SUM149PT TNBC xenograft tumor growth inhibition; assay type: in vivo, mice
Method: SUM149PT is a TNBC xenograft model harboring a BRCA1 splice isoform (Δ11q) that produces a truncated, partially functional protein which thereby promotes PARP inhibitor resistance. Azenosertib monotherapy and its combination with olaparib or AZD5305 was evaluated in the SUM149PT model in vivo in mice (FIGS. 10A-10B), and Table 12 summarizes the groups and treatments. Single agent treatment with olaparib at 100 mg/kg QD (FIG. 10A) or with the PARP1 selective inhibitor, AZD5305, at 0.1 or 1 mg/kg QD (FIG. 10B) confirmed SUM149PT resistance to PARP inhibitors.

[7] = Body weight loss and clinical observations in ovarian PDX study; assay type: in vivo
Method: Relative Body Weight (RBW), individual body weight and mean body weight loss percent were calculated for each measurement by dividing the body weight by the body weight at the start of treatment as described in Example 3.

[8] = Body weight loss and clinical observations in TNBC PDX study; conditions: azenosertib 60 mg/kg and/or niraparib 35 mg/kg p.o., (5 days on, 2 days off) × 4
Method: Animals were treated with 60 mg/kg azenosertib or 35 mg/kg niraparib alone or in combination on an intermittent dosing regimen of once a day for 5 days followed by 2 days off (qd x5, 2 days off) for 4 cycles (28 days).
Relative body weight (RBW) is calculated for each measurement by dividing the body weight by the body weight at the start of treatment. Individual body weight loss percent is given by the formula: […]
where BWx is the BW at any day during the treatment and BW0 is the BW on the day of inclusion.
Mean body weight loss percent is given by the formula: […]
where BWx is the mean BW at any day during the treatment and BW0 is the mean BW on the day of inclusion.
Mean relative body weight (RBW) curves were obtained by plotting the mean RBW against time for each experimental group. Delta relative body weights (relative body weights of treated group compared to relative body weights of control group) were used for statistical analysis.

[9] = olaparib 50 mg/kg p.o. qd × 5 3 cycle
[10] = Homo sapiens, MDA-MB-436 Ola^R, read-out: In vitro activity (IC50) Olaparib^R (BRCA reversion)
[11] = Homo sapiens, parental MDA-MB-436, read-out: In vitro activity (IC50) Wild Type
[12] = niraparib 30 mg/kg p.o. qd × 5 3 cycle
[13] = azenosertib 60 mg/kg and/or niraparib 35 mg/kg p.o., (5 days on, 2 days off) × 4
[14] = MDA-MB-436 Ola^R, read-out: In vitro activity (IC50) Olaparib^R (BRCA reversion)
[15] = parental MDA-MB-436, read-out: In vitro activity (IC50) Wild Type

Structure (SMILES): O=C(c1cc(Cc2n[nH]c(=O)c3ccccc23)ccc1F)N1CCN(C(=O)C2CC2)CC1 [Olaparib, olaparib]
- IC50 ([1]; Homo sapiens): > 10 µM
- % TGI Day 5 [2, 9]: 33.81%
- % TGI Day 8 [2, 9]: 26.80%
- % TGI Day 12 [2, 9]: 18.2%
- % TGI Day 15 [2, 9]: 5.03%
- % TGI Day 19 [2, 9]: 14.79%
- IC50 [3, 10]: > 10 µM
- anti-tumor activity of monotherapy [4]: resistance
- IC50 [5, 11]: 0.095 µM
- anti-tumor activity of single agent ([6]; olaparib 100 mg/kg QD): resistance

Structure (SMILES): NC(=O)c1cccc2cn(-c3ccc([C@@H]4CCCNC4)cc3)nc12 [Niraparib, niraparib]
- IC50 ([1]; Homo sapiens): 8.65 µM
- % TGI Day 5 [2, 12]: 31.64%
- % TGI Day 8 [2, 12]: 18.17%
- % TGI Day 12 [2, 12]: 21.99%
- % TGI Day 15 [2, 12]: 4.28%
- % TGI Day 19 [2, 12]: −1.28%
- IC50 [3, 10]: 7.73 µM
- Max. individual BWL [7, 13]: 7.0%
- Max. mean BWL [7, 13]: 1.5%
- tolerability (body weight data and clinical observations) ([7]; azenosertib at 60 mg/kg, niraparib at 35 mg/kg, single agents or in combination): well tolerated
- Max. individual BWL [8]: 6.2%
- Max. mean BWL [8]: 3.4%
- IC50 [5, 11]: 0.103 µM

Structure (SMILES): CCc1cc2ncc(CN3CCN(c4ccc(C(=O)NC)nc4)CC3)cc2[nH]c1=O [AZD5305, saruparib]
- anti-tumor activity of single agent ([6]; AZD5305 0.1 or 1 mg/kg QD): resistance

Structure (SMILES): Cn1cc(-c2cnn3c(N)c(Br)c([C@@H]4CCCNC4)nc23)cn1 [MK8776]
- IC50 ([3]; Homo sapiens, MDA-MB-436, read-out: In vitro activity (IC50) Olaparib^R (BRCA reversion)): 5.97 µM
- IC50 ([5]; Homo sapiens, MDA-MB-436, read-out: In vitro activity (IC50) Wild Type): > 10 µM

Structure (SMILES): CN(C)CCCOc1ccc(-c2ccc3ncc4c(c3c2)n(C2CCOCC2)c(=O)n4C)cn1 [AZD0156]
- IC50 [1]: 2.08 µM
- IC50 [3, 14]: 1.99 µM
- IC50 [5, 15]: 4.98 µM

Continued, in another order:

- IC50 [1]: 1.77 µM
- IC50 [3, 14]: 1.84 µM
Structure (SMILES): C[C@@H]1COCCN1c1cc(C2([S@](C)(=N)=O)CC2)nc(-c2cc[nH]c3nccc2-3)n1 [AZD6738]
- IC50 [5, 15]: 3.67 µM

- IC50 [1]: > 10 µM
- IC50 [3, 14]: > 10 µM
Structure (SMILES): Cc1cc2ncnn2cc1Nc1ncc2c(n1)n(C1CCOCC1)c(=O)n2C [AZD7648]
- IC50 [5, 15]: > 10 µM
